Patent EP0367671B1, “Novel beta-D-phenylthioxylosides, their method of preparation and their use as pharmaceuticals” (FOURNIER INDUSTRIE ET SANTE, priority 1988, dated 1990)

System: venous thrombosis
Experiment: venous thrombosis protocol (venous stasis under hypercoagulation with activated factor X, Wessler technique; thrombus removed and weighed)
Format: in vivo
Details: Rattus norvegicus, po; 12.5 mg/kg p.o., suspension in PEG 400; thrombosis induced 4 hours after treatment; unfasted male Wistar rats
Procedure: A venous stasis is produced under hypercoagulation according to the technique described by WESSLER et al. (J. Applied Physiol. 1959, p. 943-946). As in the technique described by J. HAUPMAN et al. (Thrombosis and Haemostasis 43 (2) 1980, p. 118), the hypercoagulant used is a solution of activated factor X (Xa) supplied by the company Flow Laboratories (71 Knat per 12.5 ml of physiological serum).
The study is performed on unfasted male Wistar rats weighing 250 to 280 g and divided up into groups of 10 animals each. The test products are administered orally as a suspension in PEG 400. A thrombosis is induced 4 hours after this treatment and the thrombus formed is removed and weighed.
The results obtained at a dose of 12.5 mg/kg p.o. have been collated in Table I. The results obtained with the known products of the above-mentioned prior art have also been collated in this Table.

N#Cc1ccc(S[C@@H]2SC[C@@H](O)[C@H](O)[C@H]2O)c(C(=O)c2ccccc2)c1 [Example 1, (2-benzoyl-4-cyanophenyl)-1,5-dithio-β-D-xylopyranoside]
inhibition in vivo at 12.5 mg/kg: 69%

CC(=O)O[C@@H]1[C@@H](OC(C)=O)[C@H](Sc2ccc(C#N)cc2C(=O)c2ccccc2)SC[C@H]1OC(C)=O [Example 1a, (2-benzoyl-4-cyanophenyl)-2,3,4-tri-O-acetyl-1,5-dithio-β-D-xylopyranoside]
inhibition in vivo at 12.5 mg/kg: 43.8%

N#Cc1ccc(S[C@@H]2SC[C@@H](O)[C@H](O)[C@H]2O)c(C(O)c2ccccc2)c1 (stereo partly drawn) [Example 2, (4-cyano-2-phenylhydroxymethylphenyl)-1,5-dithio-β-D-xylopyranoside]
inhibition in vivo at 12.5 mg/kg: 61%

O=C(c1ccccc1)c1ccccc1S[C@@H]1SC[C@@H](O)[C@H](O)[C@H]1O [Example 3, (2-benzoylphenyl)-1,5-dithio-β-D-xylopyranoside]
inhibition in vivo at 12.5 mg/kg: 4%

N#Cc1ccc(C(=O)c2ccccc2S[C@@H]2SC[C@@H](O)[C@H](O)[C@H]2O)cc1 [Example 4, (2-(4-cyanobenzoyl)phenyl)-1,5-dithio-β-D-xylopyranoside]
inhibition in vivo at 12.5 mg/kg: 88%

N#Cc1ccc(C(O)c2ccccc2S[C@@H]2SC[C@@H](O)[C@H](O)[C@H]2O)cc1 (stereo partly drawn) [Example 5, (2-(4-cyanophenylhydroxymethyl)phenyl)-1,5-dithio-β-D-xylopyranoside]
inhibition in vivo at 12.5 mg/kg: 62%

N#Cc1cccc(C(=O)c2ccccc2S[C@@H]2SC[C@@H](O)[C@H](O)[C@H]2O)c1 [Example 6, (2-(3-cyanobenzoyl)phenyl)-1,5-dithio-β-D-xylopyranoside]
inhibition in vivo at 12.5 mg/kg: 59%

N#Cc1cccc(C(O)c2ccccc2S[C@@H]2SC[C@@H](O)[C@H](O)[C@H]2O)c1 (stereo partly drawn) [Example 7, (2-(3-cyanophenylhydroxymethyl)phenyl)-1,5-dithio-β-D-xylopyranoside]
inhibition in vivo at 12.5 mg/kg: 54%

N#Cc1ccccc1C(=O)c1ccccc1S[C@@H]1SC[C@@H](O)[C@H](O)[C@H]1O [Example 8, (2-(2-cyanobenzoyl)phenyl)-1,5-dithio-β-D-xylopyranoside]
inhibition in vivo at 12.5 mg/kg: 57%

N#Cc1ccc(C(=O)c2cc(C(F)(F)F)ccc2S[C@@H]2SC[C@@H](O)[C@H](O)[C@H]2O)cc1 [Example 9, (2-(4-cyanobenzoyl)-4-trifluoromethylphenyl)-1,5-dithio-β-D-xylopyranoside]
inhibition in vivo at 12.5 mg/kg: 56.5%

N#Cc1ccc(C(O)c2cc(C(F)(F)F)ccc2S[C@@H]2SC[C@@H](O)[C@H](O)[C@H]2O)cc1 (stereo partly drawn) [Example 10, (2-(4-cyanophenylhydroxymethyl)-4-trifluoromethylphenyl)-1,5-dithio-β-D-xylopyranoside]
inhibition in vivo at 12.5 mg/kg: 61%
